Target: rabbit bone collagenase (Oryctolagus cuniculus, UniProt P13943)
Assay: biochemical
Procedure: The test is performed essentially as in Cawston and Barrett Anal. Biochem. 99, 340-345 (1979). Compounds for testing are dissolved in methanol and added to purified rabbit bone collagenase or human collagenase purified from culture supernatants from the human lung fibroblast cell line, WI-38, diluted in a suitable aqueous buffer. After a 5 min pre-incubation at 37° C., the assay tubes are cooled to 4° C. and ^14 C-acetylated rat skin Type I collagen is added. The assay tubes are incubated at 37° C. overnight. The ^14 C-collagen forms insoluble fibrils which are the substrate for the enzyme.
To terminate the assay, the assay tubes are spun at 12000 rpm for 25 min. Undigested ^14 C-collagen remains as insoluble fibrils and is pelleted, while digested ^14 C-collagen remains as soluble peptides in the supernatant. A sample of the supernatant is taken for liquid scintillation counting.

Chain of rabbit bone collagenase (P13943 99-468): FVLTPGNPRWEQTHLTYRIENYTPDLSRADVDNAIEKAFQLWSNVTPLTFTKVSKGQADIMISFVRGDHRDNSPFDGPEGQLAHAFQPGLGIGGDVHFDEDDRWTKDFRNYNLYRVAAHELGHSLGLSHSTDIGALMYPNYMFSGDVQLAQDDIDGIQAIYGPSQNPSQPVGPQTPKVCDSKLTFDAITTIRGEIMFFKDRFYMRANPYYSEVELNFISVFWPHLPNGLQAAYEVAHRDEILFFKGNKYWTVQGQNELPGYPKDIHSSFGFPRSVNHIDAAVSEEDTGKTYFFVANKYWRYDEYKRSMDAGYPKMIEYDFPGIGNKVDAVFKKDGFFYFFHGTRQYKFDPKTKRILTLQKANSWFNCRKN

Row | SMILES | IC50
1 | COC(=O)[C@H](C)NC(=O)[C@H](Cc1c[nH]c2ccccc12)NC(=O)[C@H](CC(C)C)NC(C)P(=O)(O)O (stereo partly drawn) [Example E1, N-[N-[N-(1-Phosphonoethyl)-leucyl]-(S)-tryptophyl]-(S)-alanine, methyl ester] | 2400 nM
2 | COC(=O)[C@H](C)NC(=O)[C@H](Cc1ccc(OC)cc1)NC(=O)[C@H](CC(C)C)NC(C)P(=O)(O)O (stereo partly drawn) [Example E2, N-[N-[N-(1-Phosphonoethyl)-leucyl]-O-methyl-(S)-tyrosyl]-(S)-alanine, methyl ester] | 3100 nM

Source: patent publication US5212163A, “Compounds” (Beecham Group p.l.c., priority 1989, dated 1993)
